Experimental data from article PMC5321741, “Arylmethylamino steroids as antiparasitic agents” (Nature Communications, 2017).

Columns and labels:
[1] = spectrophotometric titration by Fe(III); type: physicochemical; conditions: 0.2 M HEPES pH 7.5 + DMSO (1:1 v/v), 25.0 °C
Experimental: Supplementary Figure 17. (left) Spectrophotometric titration of the substrates 1o and 2o by Cu(II) and Fe(III) and (right) electronic spectra of the free substrates and of corresponding metal complexes. Solvent: 0.2 M aqueous sodium HEPES buffer pH 7.5 + DMSO (1:1 v/v); T = 25.0 […]
were prepared in CH3CN (5 mM). Haematin and the substrates were mixed together in […]
The absorption spectrophotometric […]
each addition of the substrate. […]
spectrophotometric data with the Specfit program. The uncertainties on the log K values are given as 3σ with σ = standard deviation. Origin 7.0 was used to process the analytical

[2] = tested on: P. falciparum gametocytes (pfs16-GFP-Luc, NF54 background); experiment: gametocyte luciferase assay; type: cell-based, Plasmodium falciparum
Experimental: Sensitivity of P falciparum gametocytes to lead compound 1o was determined by measuring the activity of luciferase in luciferase-expressing gametocytes after an exposure of 72 h to different concentrations of compound 1o.
The pfs16-GFP-Luc (NF54 background) parasite strain[44] was maintained at 1 to 10% parasitaemia in an RPMI 1640 culture medium supplemented with A+ erythrocytes (2% haematocrit), 10% decomplemented human serum, 9 mM (0.16%) glucose, 0.2 mM hypoxanthine, 2.1 mM L-glutamine, and 20 μg ml^−1 gentamicin. Parasite cultures were incubated at 37 °C in 5% O2, 5% CO2, and 90% N2. […] Following drug exposure, parasites were cultivated for two additional days in normal medium before centrifugation and freezing at −80 °C, and luciferase activity was measured.
Plates frozen at −80 °C were thawed at 37 °C. […] Luciferase activity was measured on a luminescence plate reader (Mithras LB940 luminometer, Berthold Technologies). The mean of the luciferase activity was calculated for each technical triplicate and normalized as follows: (Lucx−LucRBC)/(Lucsolvent−LucRBC) with Lucx and Lucsolvent=mean luciferase activity for parasites incubated with compound x and with solvent (DMSO for 1o and PBS for MB), respectively, and LucRBC=mean luciferase activity of non-infected red blood cells (background). […]

Structure (SMILES)	log K2o.Fe [1]	relative survival of gametocytes ([2]; concentrations >5 nM, all stages, 72 h exposure)	complete killing of gametocytes ([2]; even at concentrations >1 μM)
COc1ccc2c(c1)CCC1C2CC[C@@]2(C)C1CC[C@@H]2NCc1cc2ccccc2cc1O (stereo partly drawn) [2o]	4.3		
COc1ccc2c(c1)CCC1C2CC[C@@]2(C)C1CC[C@H]2NCc1cc2ccccc2cc1O (stereo partly drawn) [1o]		below 50%	never detected complete killing of gametocytes
